Experiments:
Experiment in all cases: relative viability (nuclei count vs DMSO), 5 days (fraction); higher = more cells survive
NVP-TAE684 + Navitoclax = compound: COc1cc(N2CCC(N3CCN(C)CC3)CC2)ccc1Nc1ncc(Cl)c(Nc2ccccc2S(=O)(=O)C(C)C)n1 [NVP-TAE684] + CC1(C)CCC(c2ccc(Cl)cc2)=C(CN2CCN(c3ccc(C(=O)NS(=O)(=O)c4ccc(N[C@H](CCN5CCOCC5)CSc5ccccc5)c(S(=O)(=O)C(F)(F)F)c4)cc3)CC2)C1 [Navitoclax] (partner 0.5 µM)
Procedure, shortened: (§1)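 Lung cancer cell lines in 1536-well plates were dosed by pin tool the day after seeding, either with one drug alone or with a fixed anchor-drug dose plus five library-drug doses (not always all listed) in √10 steps. After 5 days, cells were fixed and their nuclei stained in one step (final 0.05% Triton X-100, 1% formaldehyde, 1 ug/ml Hoechst), then counted on 4× images. Relative viability is the nuclei count in treated wells divided by that in vehicle wells. Values are medians of duplicate plates.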

NVP-TAE684 + Lapatinib = compound: COc1cc(N2CCC(N3CCN(C)CC3)CC2)ccc1Nc1ncc(Cl)c(Nc2ccccc2S(=O)(=O)C(C)C)n1 [NVP-TAE684] + CS(=O)(=O)CCNCc1ccc(-c2ccc3ncnc(Nc4ccc(OCc5cccc(F)c5)c(Cl)c4)c3c2)o1 [Lapatinib] (partner 2 µM)
Procedure, shortened: as §1

Vandetanib + Trametinib = compound: COc1cc2/c(=N/c3ccc(Br)cc3F)nc[nH]c2cc1OCC1CCN(C)CC1 [Vandetanib] + CC(=O)Nc1cccc(-n2c(=O)n(C3CC3)c(=O)c3c(Nc4ccc(I)cc4F)n(C)c(=O)c(C)c32)c1 [Trametinib] (partner 0.02 µM)
Procedure, shortened: as §1

Vandetanib + Foretinib = compound: COc1cc2/c(=N/c3ccc(Br)cc3F)nc[nH]c2cc1OCC1CCN(C)CC1 [Vandetanib] + COc1cc2c(Oc3ccc(NC(=O)C4(C(=O)Nc5ccc(F)cc5)CC4)cc3F)ccnc2cc1OCCCN1CCOCC1 [Foretinib] (partner 0.25 µM)
Procedure, shortened: as §1

Cell Line: UMC-11
- relative viability (NVP-TAE684 + Navitoclax; first compound 0.2 µM): 0.331
- relative viability (NVP-TAE684 + Navitoclax; first compound 0.6325 µM): 0.289
- relative viability (NVP-TAE684 + Navitoclax; first compound 2 µM): 0.162
- relative viability (NVP-TAE684 + Lapatinib; first compound 0.2 µM): 1.03
- relative viability (NVP-TAE684 + Lapatinib; first compound 0.6325 µM): 0.778
- relative viability (NVP-TAE684 + Lapatinib; first compound 2 µM): 0.683
- relative viability (Vandetanib + Trametinib; first compound 0.02 µM): 0.82
- relative viability (Vandetanib + Trametinib; first compound 0.06325 µM): 0.674
- relative viability (Vandetanib + Trametinib; first compound 0.2 µM): 0.627
- relative viability (Vandetanib + Trametinib; first compound 0.6325 µM): 0.632
- relative viability (Vandetanib + Trametinib; first compound 2 µM): 0.583
- relative viability (Vandetanib + Foretinib; first compound 0.02 µM): 1.05
- relative viability (Vandetanib + Foretinib; first compound 0.06325 µM): 1.01
- relative viability (Vandetanib + Foretinib; first compound 0.2 µM): 0.281
- relative viability (Vandetanib + Foretinib; first compound 0.6325 µM): 0.962
- relative viability (Vandetanib + Foretinib; first compound 2 µM): 0.97

— the supplement of paper PMC10307832
